Data from the NIST ThermoML archive (doi:10.1016/j.jct.2012.03.034).

Assay: xn = mol fraction of the nth substance listed
Settings: 101 kPa, Liquid; for speed of sound: Linear variable-path acoustic interferometer; for mass density: Vibrating tube method; for viscosity: dual vibrating plate viscometer, AandD Co. Ltd Model SV-10

CC[NH2+]CC.O=S(=O)([O-])O [diethylammonium hydrogen sulfate] + CN1CCCC1=O
Settings	mass density [kg/m3]	speed of sound [m/s]	viscosity [mPa·s]
298.15 K, x1 = 0.016	1050.6	1559	2.45
298.15 K, x1 = 0.0347	1067.85	1555	3.33
298.15 K, x1 = 0.092	1113.77	1539	9.94
298.15 K, x1 = 0.1316	1140.71	1534	15.78
298.15 K, x1 = 0.1916	1176.12	1529	27.2
298.15 K, x1 = 0.2992	1222.46	1518	49.04
298.15 K, x1 = 0.3455	1237.11	1513	59.35
298.15 K, x1 = 0.4175	1253.31	1508	73.04
298.15 K, x1 = 0.5442	1269.42	1495	92.75
298.15 K, x1 = 0.6829	1275.63	1481	101.4
298.15 K, x1 = 0.8359	1277.72	1458	87.14
298.15 K, x1 = 0.9342	1282.39	1440	58.7
298.15 K, x1 = 0.9684	1281.99	1434	46.45
298.15 K, x1 = 1	1283.95	1432	34.1
303.15 K, x1 = 0.016	1037.47	1551	–
303.15 K, x1 = 0.0347	1054.26	1547	0.95
303.15 K, x1 = 0.092	1095.4	1536	7.28
303.15 K, x1 = 0.1316	1122.07	1529	12.27
303.15 K, x1 = 0.1916	1155.56	1523	21.6
303.15 K, x1 = 0.2992	1196	1515	37.85
303.15 K, x1 = 0.3455	1207.13	1510	45.88
303.15 K, x1 = 0.4175	1219.69	1505	56.62
303.15 K, x1 = 0.5442	1228.51	1491	72.49
303.15 K, x1 = 0.6829	1229.8	1474	79.75
303.15 K, x1 = 0.8359	1232.02	1446	69.13
303.15 K, x1 = 0.9342	1235.49	1423	48.37
303.15 K, x1 = 0.9684	1237.36	1415	35.95
303.15 K, x1 = 1	1239.74	1408	28.9
308.15 K, x1 = 0.016	1030.03	1533	–
308.15 K, x1 = 0.0347	1043.78	1530	0.67
308.15 K, x1 = 0.092	1080.92	1521	4.42
308.15 K, x1 = 0.1316	1103.13	1518	9.53
308.15 K, x1 = 0.1916	1133.63	1511	17.3
308.15 K, x1 = 0.2992	1169.38	1503	30.7
308.15 K, x1 = 0.3455	1179.79	1500	36.84
308.15 K, x1 = 0.4175	1190.23	1496	45.89
308.15 K, x1 = 0.5442	1198.01	1485	57.51
308.15 K, x1 = 0.6829	1198.27	1468	63.11
308.15 K, x1 = 0.8359	1198.28	1437	55.29
308.15 K, x1 = 0.9342	1200.49	1414	37.86
308.15 K, x1 = 0.9684	1202.65	1404	27.69
308.15 K, x1 = 1	1205.43	1392	24.6
313.15 K, x1 = 0.016	1020.1	1529	–
313.15 K, x1 = 0.0346	1031.41	1529	0.48
313.15 K, x1 = 0.092	1060.41	1521	2.06
313.15 K, x1 = 0.1316	1079.57	1516	5.97
313.15 K, x1 = 0.1916	1100.33	1511	13.15
313.15 K, x1 = 0.2992	1123.81	1502	24.74
313.15 K, x1 = 0.3455	1129.72	1498	30.42
313.15 K, x1 = 0.4175	1134.34	1491	36.87
313.15 K, x1 = 0.5442	1134.82	1474	46.82
313.15 K, x1 = 0.6829	1128.95	1450	52.39
313.15 K, x1 = 0.8359	1123.69	1411	46.21
313.15 K, x1 = 0.9342	1123.28	1382	30.9
313.15 K, x1 = 0.9684	1124.6	1370	23.03
313.15 K, x1 = 1	1126.81	1356	21.9
